Experimental data: US8602544B2, “Ink set, ink cartridge, ink jet recording method, and ink jet recording apparatus” (Canon Kabushiki Kaisha, priority 2009, dated 2013)

Test: Determination of poor medium/good medium (solubility of the dye in a water-soluble organic solvent)
Assay type: physicochemical
Method: It is determined by the solubility of the dye whether a certain water-soluble organic solvent is a good medium or a poor medium with respect to a dye to be used together. In other words, the good medium and the poor medium are indexes which indicate the relationship between the water-soluble organic solvent and the dye from the viewpoint of the solubility.
More specifically, it can be determined in the following way whether a certain water-soluble organic solvent is a good medium or a poor medium with respect to a dye being an object to be determined. The water-soluble organic solvent of an object to be determined and a sufficient amount of a dye are placed into a sample bottle having a capacity of approximately 20 cc, and the liquid is stirred overnight. […] Because the supernatant liquid after the centrifugal separation is a saturated solution of the dye, the solubility of the dye can be determined by measuring the absorbance of the liquid, and calculating the ratio of the measured absorbance to the absorbance of an aqueous solution of the dye with a known concentration.
In order to evaluate the reliability of the ink, it was determined what type of relationship there was between a dye and a water-soluble organic solvent which were contained in an ink. A water-soluble organic solvent being an object to be determined (when the water-soluble organic compound is solid, it was a 20% aqueous solution of the solid) and a sufficient amount of the dye were placed into a sample bottle having a capacity of 20 cc, and the liquid was stirred overnight. […] Then, the solubility of the dye with respect to the water-soluble organic solvent being the object to be determined (or 20% aqueous solution) was determined from the ratio of the measured absorbance to the previously measured absorbance of an aqueous solution having a predetermined concentration of the dye. From the obtained solubility, a water-soluble organic solvent having a solubility of 5% or less was determined to be a poor medium, and a water-soluble organic solvent having a solubility of more than 5% was determined to be a good medium.

[1] = 1-(2-hydroxyethyl)-2-pyrrolidinone
[2] = Triethylene glycol monobutyl ether

For `Cn1c(=O)c(C(=O)c2cccc(S(=O)(=O)O)c2)c2c3c(c(Nc4cc(Nc5nc(NCCNc6nc(Nc7cc(Nc8ccc9c%10c8C(=O)c8ccccc8-c%10c(C(=O)c8cccc(S(=O)(=O)O)c8)c(=O)n9C)c(S(=O)(=O)O)cc7S(=O)(=O)O)nc(Oc7ccc(S(=O)(=O)O)cc7)n6)nc(Oc6ccc(S(=O)(=O)O)cc6)n5)c(S(=O)(=O)O)cc4S(=O)(=O)O)ccc31)C(=O)c1ccccc1-2` [Exemplified compound M1], the “Determination results for poor medium/good medium (solubility of the dye)” value (1,2-hexandiol) was “poor (a water-soluble organic solvent having a solubility of 5% or less was determined to be a poor medium)”, the “Determination results for poor medium/good medium (solubility of the dye)” value (1,5-pentanediol) was “poor (a water-soluble organic solvent having a solubility of 5% or less was determined to be a poor medium)” and the “Determination results for poor medium/good medium (solubility of the dye)” value [1] was “good (a water-soluble organic solvent having a solubility of more than 5% was determined to be a good medium)”. For the same molecule, the “Determination results for poor medium/good medium (solubility of the dye)” value (2-methyl-1,3-propanediol) was “poor (a water-soluble organic solvent having a solubility of 5% or less was determined to be a poor medium)”, the “Determination results for poor medium/good medium (solubility of the dye)” value (Diethylene glycol) was “good (a water-soluble organic solvent having a solubility of more than 5% was determined to be a good medium)” and the “Determination results for poor medium/good medium (solubility of the dye)” value (Ethylene glycol) was “good (a water-soluble organic solvent having a solubility of more than 5% was determined to be a good medium)”. For the same molecule, the “Determination results for poor medium/good medium (solubility of the dye)” value (Glycerin) was “good (a water-soluble organic solvent having a solubility of more than 5% was determined to be a good medium)”, the “Determination results for poor medium/good medium (solubility of the dye)” value (Propylene glycol) was “good (a water-soluble organic solvent having a solubility of more than 5% was determined to be a good medium)” and the “Determination results for poor medium/good medium (solubility of the dye)” value (Triethylene glycol) was “good (a water-soluble organic solvent having a solubility of more than 5% was determined to be a good medium)”. For the same molecule, the “Determination results for poor medium/good medium (solubility of the dye)” value [2] was “good (a water-soluble organic solvent having a solubility of more than 5% was determined to be a good medium)”.

In the case of `CCc1cc(C)c(S(=O)(=O)O)c(CC)c1Nc1nc(N(c2nc3ccc(S(=O)(=O)O)cc3s2)c2c(CC)cc(C)c(S(=O)(=O)O)c2CC)cc(C)c1N=Nc1c(C#N)c(C(C)(C)C)nn1-c1nc2ccc(S(=O)(=O)O)cc2s1` [Exemplified compound M2], the “Determination results for poor medium/good medium (solubility of the dye)” value (1,2-hexandiol) is reported as “good (a water-soluble organic solvent having a solubility of more than 5% was determined to be a good medium)”, the “Determination results for poor medium/good medium (solubility of the dye)” value (1,5-pentanediol) is reported as “good (a water-soluble organic solvent having a solubility of more than 5% was determined to be a good medium)” and the “Determination results for poor medium/good medium (solubility of the dye)” value [1] is reported as “good (a water-soluble organic solvent having a solubility of more than 5% was determined to be a good medium)”. The “Determination results for poor medium/good medium (solubility of the dye)” value (2-methyl-1,3-propanediol) was “good (a water-soluble organic solvent having a solubility of more than 5% was determined to be a good medium)”, the “Determination results for poor medium/good medium (solubility of the dye)” value (Diethylene glycol) was “good (a water-soluble organic solvent having a solubility of more than 5% was determined to be a good medium)” and the “Determination results for poor medium/good medium (solubility of the dye)” value (Ethylene glycol) was “good (a water-soluble organic solvent having a solubility of more than 5% was determined to be a good medium)”. For the same molecule, the “Determination results for poor medium/good medium (solubility of the dye)” value (Glycerin) was “good (a water-soluble organic solvent having a solubility of more than 5% was determined to be a good medium)”, the “Determination results for poor medium/good medium (solubility of the dye)” value (Propylene glycol) was “good (a water-soluble organic solvent having a solubility of more than 5% was determined to be a good medium)” and the “Determination results for poor medium/good medium (solubility of the dye)” value (Triethylene glycol) was “good (a water-soluble organic solvent having a solubility of more than 5% was determined to be a good medium)”. For the same molecule, the “Determination results for poor medium/good medium (solubility of the dye)” value [2] was “good (a water-soluble organic solvent having a solubility of more than 5% was determined to be a good medium)”.
